# System: 873145-292-R-J1-PDC complex spheroid viability
# Test: Anticancer human tumor 873145-292-R-J1-PDC patient-derived renal clear cell carcinoma cell line growth inhibition [POLQ]
# Conditions: for IC50: curve of first compound; for viability, T/C: stronger effect = lower value
# Method in brief: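 Three-cell-type spheroids modelling solid tumor plus stroma served as the readout system; POL inhibitors were tested individually and in combination, concentration ranges set by clinical Cmax where known.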
# [1] = second compound 0.0316 µM, first compound 0.0316 µM
# [2] = second compound 0.0316 µM, first compound 0.1 µM
# [3] = second compound 0.0316 µM, first compound 0.316 µM
# [4] = second compound 0.0316 µM, first compound 1 µM
# [5] = second compound 0.0316 µM, first compound 3.16 µM
# [6] = second compound 0.0316 µM, first compound 10 µM
# [7] = second compound 0.1 µM, first compound 0.0316 µM
# [8] = second compound 0.1 µM, first compound 0.1 µM
# [9] = second compound 0.1 µM, first compound 0.316 µM
# [10] = second compound 0.1 µM, first compound 1 µM
# [11] = second compound 0.1 µM, first compound 3.16 µM
# [12] = second compound 0.1 µM, first compound 10 µM
# [13] = second compound 0.316 µM, first compound 0.0316 µM
# [14] = second compound 0.316 µM, first compound 0.1 µM
# [15] = second compound 0.316 µM, first compound 0.316 µM
# [16] = second compound 0.316 µM, first compound 1 µM
# [17] = second compound 0.316 µM, first compound 3.16 µM
# [18] = second compound 0.316 µM, first compound 10 µM
# [19] = second compound 1 µM, first compound 0.0316 µM
# [20] = second compound 1 µM, first compound 0.1 µM
# [21] = second compound 1 µM, first compound 0.316 µM
# [22] = second compound 1 µM, first compound 1 µM
# [23] = second compound 1 µM, first compound 3.16 µM
# [24] = second compound 1 µM, first compound 10 µM
# [25] = second compound 3.16 µM, first compound 0.0316 µM
# [26] = second compound 3.16 µM, first compound 0.1 µM
# [27] = second compound 3.16 µM, first compound 0.316 µM
# [28] = second compound 3.16 µM, first compound 1 µM
# [29] = second compound 3.16 µM, first compound 3.16 µM
# [30] = second compound 3.16 µM, first compound 10 µM
# [31] = second compound 10 µM, first compound 0.0316 µM
# [32] = second compound 10 µM, first compound 0.1 µM
# [33] = second compound 10 µM, first compound 0.316 µM
# [34] = second compound 10 µM, first compound 1 µM
# [35] = second compound 10 µM, first compound 3.16 µM
# [36] = second compound 10 µM, first compound 10 µM
# 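Note: spheroids exposed to compounds for 7 days before viability readout.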
# 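Throughout, for viability, T/C: luminescence signal used as surrogate for viable cell content; 100% = DMSO vehicle control viability.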
structure (smiles),measurement,setting,value
O=C(Nc1ccc(O)c(NS(=O)(=O)c2ccc(F)cc2)c1)c1ccc(-c2ccccc2)cc1 + COC1C(OC(N)=O)C(O)C(Oc2ccc3c(O)c(NC(=O)c4ccc(O)c(CC=C(C)C)c4)c(=O)oc3c2C)OC1(C)C,IC50,second compound 0.0316 µM,> 10000 nM
same,IC50,second compound 0.1 µM,> 10000 nM
same,IC50,second compound 0.316 µM,> 10000 nM
same,IC50,second compound 1 µM,> 10000 nM
same,IC50,second compound 3.16 µM,> 10000 nM
same,IC50,second compound 10 µM,> 10000 nM
same,"viability, T/C",[1],113%
same,"viability, T/C",[2],99.8%
same,"viability, T/C",[3],95.7%
same,"viability, T/C",[4],101%
same,"viability, T/C",[5],98.5%
same,"viability, T/C",[6],101%
same,"viability, T/C",[7],99.9%
same,"viability, T/C",[8],106%
same,"viability, T/C",[9],88.9%
same,"viability, T/C",[10],94.8%
same,"viability, T/C",[11],97.6%
same,"viability, T/C",[12],101%
same,"viability, T/C",[13],105%
same,"viability, T/C",[14],92.7%
same,"viability, T/C",[15],96.2%
same,"viability, T/C",[16],98.6%
same,"viability, T/C",[17],110%
same,"viability, T/C",[18],98.1%
same,"viability, T/C",[19],106%
same,"viability, T/C",[20],103%
same,"viability, T/C",[21],91.6%
same,"viability, T/C",[22],97.2%
same,"viability, T/C",[23],104%
same,"viability, T/C",[24],91.1%
same,"viability, T/C",[25],97.3%
same,"viability, T/C",[26],94.8%
same,"viability, T/C",[27],102%
same,"viability, T/C",[28],92.9%
same,"viability, T/C",[29],99.2%
same,"viability, T/C",[30],109%
same,"viability, T/C",[31],105%
same,"viability, T/C",[32],95.2%
same,"viability, T/C",[33],92.5%
same,"viability, T/C",[34],100%
same,"viability, T/C",[35],108%
same,"viability, T/C",[36],108%
CC(=O)O[C@H]1C(=O)[C@@]2(C)[C@H]([C@H](OC(=O)c3ccccc3)[C@]3(O)C[C@H](OC(=O)[C@H](O)[C@@H](NC(=O)c4ccccc4)c4ccccc4)C(C)=C1C3(C)C)[C@]1(OC(C)=O)CO[C@@H]1C[C@@H]2O + Cc1cccc(N(C)C(=O)C2C(O)CCN2c2nc(C)cc(C(F)(F)F)c2C#N)c1,IC50,second compound 0.0316 µM,> 3000 nM
same,IC50,second compound 0.1 µM,> 3000 nM
same,IC50,second compound 0.316 µM,> 3000 nM
same,IC50,second compound 1 µM,> 3000 nM
same,IC50,second compound 3.16 µM,> 3000 nM
same,IC50,second compound 10 µM,> 3000 nM
same,"viability, T/C","second compound 0.0316 µM, first compound 0.00949 µM",92.4%
same,"viability, T/C","second compound 0.0316 µM, first compound 0.03 µM",75.9%
same,"viability, T/C","second compound 0.0316 µM, first compound 0.0949 µM",74.7%
same,"viability, T/C","second compound 0.0316 µM, first compound 0.3 µM",69.1%
same,"viability, T/C","second compound 0.0316 µM, first compound 0.949 µM",72.8%
same,"viability, T/C","second compound 0.0316 µM, first compound 3 µM",74.9%
same,"viability, T/C","second compound 0.1 µM, first compound 0.00949 µM",92%
same,"viability, T/C","second compound 0.1 µM, first compound 0.03 µM",99%
same,"viability, T/C","second compound 0.1 µM, first compound 0.0949 µM",67%
same,"viability, T/C","second compound 0.1 µM, first compound 0.3 µM",77.7%
same,"viability, T/C","second compound 0.1 µM, first compound 0.949 µM",68.6%
same,"viability, T/C","second compound 0.1 µM, first compound 3 µM",66.3%
same,"viability, T/C","second compound 0.316 µM, first compound 0.00949 µM",94.5%
same,"viability, T/C","second compound 0.316 µM, first compound 0.03 µM",82.4%
same,"viability, T/C","second compound 0.316 µM, first compound 0.0949 µM",76.2%
same,"viability, T/C","second compound 0.316 µM, first compound 0.3 µM",74.1%
same,"viability, T/C","second compound 0.316 µM, first compound 0.949 µM",76.5%
same,"viability, T/C","second compound 0.316 µM, first compound 3 µM",70.3%
same,"viability, T/C","second compound 1 µM, first compound 0.00949 µM",79.7%
same,"viability, T/C","second compound 1 µM, first compound 0.03 µM",84.3%
same,"viability, T/C","second compound 1 µM, first compound 0.0949 µM",81.8%
same,"viability, T/C","second compound 1 µM, first compound 0.3 µM",77.8%
same,"viability, T/C","second compound 1 µM, first compound 0.949 µM",73.3%
same,"viability, T/C","second compound 1 µM, first compound 3 µM",69.3%
same,"viability, T/C","second compound 3.16 µM, first compound 0.00949 µM",84.7%
same,"viability, T/C","second compound 3.16 µM, first compound 0.03 µM",85.6%
same,"viability, T/C","second compound 3.16 µM, first compound 0.0949 µM",72.5%
same,"viability, T/C","second compound 3.16 µM, first compound 0.3 µM",71.5%
same,"viability, T/C","second compound 3.16 µM, first compound 0.949 µM",80.3%
same,"viability, T/C","second compound 3.16 µM, first compound 3 µM",80.4%
same,"viability, T/C","second compound 10 µM, first compound 0.00949 µM",75.4%
same,"viability, T/C","second compound 10 µM, first compound 0.03 µM",80.3%
same,"viability, T/C","second compound 10 µM, first compound 0.0949 µM",75.8%
same,"viability, T/C","second compound 10 µM, first compound 0.3 µM",65.9%
same,"viability, T/C","second compound 10 µM, first compound 0.949 µM",75.6%
same,"viability, T/C","second compound 10 µM, first compound 3 µM",71.2%
COc1cccc2c1C(=O)c1c(O)c3c(c(O)c1C2=O)CC(O)(C(=O)CO)CC3OC1CC(N)C(O)C(C)O1 (stereo unspecified) + Cc1cccc(N(C)C(=O)C2C(O)CCN2c2nc(C)cc(C(F)(F)F)c2C#N)c1,IC50,second compound 0.0316 µM,1440 nM
same,IC50,second compound 0.1 µM,1400 nM
same,IC50,second compound 0.316 µM,1350 nM
same,IC50,second compound 1 µM,1350 nM
same,IC50,second compound 3.16 µM,1140 nM
same,IC50,second compound 10 µM,636 nM
same,"viability, T/C",[1],87.6%
same,"viability, T/C",[2],83.7%
same,"viability, T/C",[3],66.1%
same,"viability, T/C",[4],71.8%
same,"viability, T/C",[5],2.96%
same,"viability, T/C",[6],2.02%
same,"viability, T/C",[7],92.2%
same,"viability, T/C",[8],82.5%
same,"viability, T/C",[9],66.9%
same,"viability, T/C",[10],68.6%
same,"viability, T/C",[11],4.68%
same,"viability, T/C",[12],2.44%
same,"viability, T/C",[13],96.4%
same,"viability, T/C",[14],75.1%
same,"viability, T/C",[15],72.1%
same,"viability, T/C",[16],66.1%
same,"viability, T/C",[17],4.5%
same,"viability, T/C",[18],2.19%
same,"viability, T/C",[19],95.8%
same,"viability, T/C",[20],69.7%
same,"viability, T/C",[21],71.9%
same,"viability, T/C",[22],66.4%
same,"viability, T/C",[23],3.11%
same,"viability, T/C",[24],1.52%
same,"viability, T/C",[25],91.1%
same,"viability, T/C",[26],83.5%
same,"viability, T/C",[27],71.9%
same,"viability, T/C",[28],57.1%
same,"viability, T/C",[29],2.19%
same,"viability, T/C",[30],1.66%
same,"viability, T/C",[31],84.8%
same,"viability, T/C",[32],73.3%
same,"viability, T/C",[33],80.3%
same,"viability, T/C",[34],30.8%
same,"viability, T/C",[35],0.94%
same,"viability, T/C",[36],1.6%

# Reference: PubChem BioAssay AID1963834 (Molecular Pharmacology Branch, DTP, NCI, 2024)
